Experimental findings from patent US12319655B2, “RAF kinase inhibitors and methods of use thereof” (Deciphera Pharmaceuticals, LLC, priority 2021, dated 2025) are described below.

For assay [1], the target named is B-Raf kinase (SEQ. ID NO: 2) (Homo sapiens (Human), UniProt P15056). Put plainly: Biochemical Assay for B-Raf (1). The conditions noted are these: Table J, assay version (1); read-out: BRAF (1) IC50. In a few lines:
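IC50 derived by four-parameter sigmoidal fit of percent inhibition, normalised to uninhibited and reference-inhibitor controls, using reaction rates over 4–5 h. Coupled spectrophotometric readout (NADH loss at 340 nm, 6 h, 30° C.); 1 mM ATP, 30.1 nM MEK, 0.13 nM B-Raf, pH 7.5 Tris buffer, 1% DMSO.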

A further assay has as its system A375 cells. Briefly: A375 Cell Proliferation Assay (1). Format: cell-based. Particulars: Homo sapiens, A-375. In short, it runs like this: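 Resazurin fluorescence (excitation 540 nm, emission 600 nm, after a further 5-6 h) gave IC50s from triplicate compound dilution series.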
A further assay concerns WM3928 cells. Briefly: WM3928 Cell Proliferation Assay (1). Format: cell-based. The protocol: WM3928 Cell Proliferation Assay (1)
WM3928 cells (#WM3928-01-0001) are obtained from Rockland Immunochemicals Inc (Gilbertsville, PA). Briefly, cells were grown in MCDB 153 medium (Sigma, #M7403, St. Louis, MO) supplemented with 20% Leibovitz's L-15 (ThermoFisher #11415-064, Waltham, MA), 2% heat inactivated fetal bovine serum (ThermoFisher, #A3840001, Waltham, MA), 5 μg/mL Insulin (Bovine Pancreas) (Sigma, #I0516, St. Louis, MO), 1.68 mM Calcium Chloride (Sigma, #C-34006, St. Louis, MO) and 1% Penicillin/Streptomycin/L-Glutamine (ThermoFisher #10378016, Waltham, MA) at 37° C., 5% CO2, and 95% humidity. Cells are expanded until reaching 70-95% confluency at which point they are subcultured or harvested for assay use. A serial dilution of test compound is dispensed into a 96-well black clear bottom plate in triplicate. Three thousand cells are added per well in 200 μL complete growth medium in the 96-well plate. Plates are incubated for 67-72 hours at 37° C., 5% CO2, and 95% humidity. At the end of the incubation, 40 μL of a 440 μM solution of resazurin (Sigma, #199303, St. Louis, MO) in PBS is added to each well of the plate and plates are incubated for an additional 6-7 hours at 37° C., 5% CO2, and 95% humidity. Plates are read on a Synergy2 or equivalent reader (Biotek, Winooski VT) using an excitation of 540 nm and an emission of 600 nm. Data is analyzed using Prism software (GraphPad, San Diego, CA) to calculate IC50 values.

Chain of B-Raf kinase (SEQ. ID NO: 2) (P15056 416-766): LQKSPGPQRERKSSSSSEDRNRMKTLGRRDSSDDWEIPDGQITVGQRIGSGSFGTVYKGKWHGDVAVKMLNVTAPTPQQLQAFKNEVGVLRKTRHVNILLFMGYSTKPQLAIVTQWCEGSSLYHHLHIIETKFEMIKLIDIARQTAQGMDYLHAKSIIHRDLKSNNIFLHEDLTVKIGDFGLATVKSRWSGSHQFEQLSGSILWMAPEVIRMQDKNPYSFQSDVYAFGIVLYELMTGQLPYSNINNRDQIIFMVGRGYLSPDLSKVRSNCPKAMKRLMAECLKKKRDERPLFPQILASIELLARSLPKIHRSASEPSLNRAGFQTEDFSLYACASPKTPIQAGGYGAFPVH

On to `CNC(=O)c1cc(-c2ccnc(-c3cc(NC(=O)c4ccnc(C(C)(C)C#N)c4)ccc3C)n2)ccn1` [Example 177], for which the values for the half-maximal inhibitory concentration (IC50) (in assay [1]; in the assay on A375 cells; in the assay on WM3928 cells) were 100 to 500 nM, 100 to 500 nM and at most 100 nM, respectively.

With `Cc1ccc(NC(=O)c2ccnc(C(C)(C)C#N)c2)cc1-c1ccnc(-c2ccnc(C(=O)NC3CC3)c2)c1` [Example 162], the IC50 (in assay [1]; in the assay with A375 cells; with WM3928 cells) was 100 to 500 nM each time.

Consider `COCC(=O)Nc1cc(-c2cncc(-c3cc(NC(=O)c4ccnc(C(F)(F)F)c4)ccc3C)n2)ccn1` [Example 99], for which the IC50 was at most 100 nM in assay [1] and 500 to 1000 nM in the assay with A375 cells.

`CC(=O)Nc1cc(-c2cc(-c3cc(NC(=O)c4ccnc(C(F)(F)F)c4)ccc3C)ccn2)ccn1` [Example 6]: the IC50 (in assay [1]; in the assay with A375 cells) was at most 100 nM in each case.

As for `Cc1ncc(NC(=O)c2ccnc(C(C)(C)C#N)c2)cc1-c1cccc(-c2ccnc3[nH]cnc23)c1` [Example 111], the IC50 in assay [1] was 500 to 1000 nM; in the assay on A375 cells it was 1000 to 10000 nM; with WM3928 cells, 1000 to 10000 nM.

For the compound `CC(=O)Nc1cc(-c2nccc(-c3cc(NC(=O)c4cc(C(F)(F)F)ccn4)ccc3C)n2)ccn1` [Example 153], the IC50 (in assay [1]; with A375 cells) was at most 100 nM each time.

As to `CC(=O)Nc1cc(-c2cc(-c3cc(NC(=O)c4ccnc(C(F)(F)F)c4)ccc3C)cn(CCO)c2=O)ccn1` [Example 102], the IC50 in assay [1] fell in the range of 100 to 500 nM; with A375 cells, 1000 to 10000 nM.

As to `CNC(=O)c1cc(-c2cncc(-c3cc(NC(=O)c4ccnc(C5CC5)c4)ccc3C)n2)ccn1` [Example 139], the IC50 in assay [1] is at most 100 nM; in the assay on A375 cells it was 1000 to 10000 nM.

As to `CC(=O)Nc1cc(-c2cc(-c3cc(NC(=O)c4ccnc(C(F)(F)F)c4)ccc3C)cc(C)n2)ccn1` [Example 5], the IC50 in assay [1] was at most 100 nM; in the assay with A375 cells it was 100 to 500 nM; in the assay with WM3928 cells, at most 100 nM.

On to `Cc1ncc(NC(=O)c2ccnc(C(C)(C)C#N)c2)cc1-c1cccc(-c2ncnc3[nH]ncc23)c1` [Example 129], for which the IC50 in assay [1] was at most 100 nM; in the assay with A375 cells, 500 to 1000 nM; with WM3928 cells it was 100 to 500 nM.

For the compound `CC(=O)Nc1cc(-c2cc(-c3cc(NC(=O)c4ccnc(C(F)(F)F)c4)ccc3C)cc(=O)n2C)ccn1` [Example 11], the results for the half-inhibitory concentration (IC50) (in assay [1]; in the assay with A375 cells) were 100 to 500 nM and 1000 to 10000 nM, respectively.

In the case of `CC(=O)Nc1cc(-c2cncc(-c3cc(NC(=O)c4ccnc(C(C)(C)C#N)c4)ccc3C)n2)ccn1` [Example 140], the IC50 (in assay [1]; with A375 cells; with WM3928 cells) was at most 100 nM throughout.

Consider `CC(=O)Nc1nccc(-c2cccc(-c3cc(NC(=O)c4ccnc(C(F)(F)F)c4)ccc3C)c2)c1C#N` [Example 132], for which the values for the IC50 (in assay [1]; in the assay with A375 cells; in the assay with WM3928 cells) were 100 to 500 nM, 500 to 1000 nM and 100 to 500 nM, respectively.

With `COCC(=O)Nc1cc(-c2cccc(-c3cc(NC(=O)c4ccnc(C(F)(F)F)c4)cnc3C)n2)ccn1` [Example 130], the IC50 was at most 100 nM in assay [1] and 1000 to 10000 nM in the assay on A375 cells.

Take `Cc1ccc(NC(=O)c2ccnc(C(C)(C)C#N)c2)cc1-c1cccc(-c2ncnc3c2CC(=O)N3)c1` [Example 109]: the IC50 was at most 100 nM in assay [1], 100 to 500 nM in the assay on A375 cells and at most 100 nM in the assay on WM3928 cells.

Take `CNC(=O)c1cc(-c2cc(-c3cc(NC(=O)c4ccnc(C(C)(C)C#N)c4)ccc3C)cc(C3CC3)n2)ccn1` [Example 163]: the IC50 in assay [1] was 100 to 500 nM; with A375 cells it was at most 100 nM; with WM3928 cells it was at most 100 nM.

For `Cc1ccc(NC(=O)c2ccnc(C3(C#N)CC3)c2)cc1-c1ccnc(-c2ccnc(NC(=O)C3CC3)c2)n1` [Example 180], the IC50 (in assay [1]; with A375 cells; in the assay on WM3928 cells) was at most 100 nM throughout.

For `Cc1ccc(NC(=O)c2ccnc(C(F)(F)F)c2)cc1-c1cncc(-c2ccnc(NC(=O)CC#N)c2)n1` [Example 98], the IC50 in assay [1] is at most 100 nM; with A375 cells, 500 to 1000 nM.

For `CC(=O)Nc1cc(-c2nccc(-c3cc(NC(=O)c4ccnc(C5CC5)c4)ccc3C)n2)ccn1` [Example 152], the IC50 is at most 100 nM in assay [1], 100 to 500 nM in the assay on A375 cells and at most 100 nM in the assay with WM3928 cells.

For `CNC(=O)c1cc(-c2cncc(-c3cc(NC(=O)c4cccc(C(C)(C)C#N)c4)ccc3C)n2)ccn1` [Example 136], the IC50 (in assay [1]; in the assay with A375 cells) was at most 100 nM in each case.

With `Cc1ccc(NC(=O)c2ccnc(C(F)(F)F)c2)cc1-c1cncc(-c2ccnc(NC=O)c2)n1` [Example 123], the IC50 in assay [1] was at most 100 nM; with A375 cells, 100 to 500 nM; with WM3928 cells it was 100 to 500 nM.

Regarding `CC(=O)Nc1cc(-c2cncc(-c3cc(NC(=O)c4ccnc(C5(C#N)CC5)c4)ccc3C)n2)ccn1` [Example 146], the half-inhibitory concentration (IC50) (in assay [1]; with A375 cells; in the assay with WM3928 cells) was at most 100 nM throughout.

As for `CNC(=O)c1cc(-c2cccc(-c3cc(NC(=O)c4ccnc(C(C)(C)C#N)c4)ccc3C)c2)ncn1` [Example 171], the IC50 (in assay [1]; in the assay on A375 cells; in the assay on WM3928 cells) was at most 100 nM each time.

With `CC(=O)Nc1cc(-c2cc(-c3cc(NC(=O)c4ccnc(C(C)(C)C#N)c4)ccc3C)cn(C)c2=O)ccn1` [Example 113], the IC50 (in assay [1]; in the assay with A375 cells; in the assay on WM3928 cells) was 100 to 500 nM throughout.

With `CNC(=O)c1cc(-c2nccc(-c3cc(NC(=O)c4ccnc(C(C)(C)C#N)c4)c(F)cc3C)n2)ccn1` [Example 166], the IC50 (in assay [1]; in the assay on A375 cells) was 100 to 500 nM throughout.

As for `Cc1ccc(NC(=O)c2ccnc(C(C)(C)C#N)c2)cc1-c1cncc(-c2ccnc(NC=O)c2)n1` [Example 161], the IC50 (in assay [1]; with A375 cells; in the assay on WM3928 cells) was at most 100 nM in each case.

In the case of `COCCNc1cc(-c2cncc(-c3cc(NC(=O)c4ccnc(C(C)(C)C#N)c4)ccc3C)n2)ccn1` [Example 143], the IC50 was 100 to 500 nM in assay [1] and 1000 to 10000 nM with A375 cells.

With `CCC(=O)Nc1cc(-c2cccc(-c3cc(NC(=O)c4ccnc(C(C)(C)C#N)c4)cnc3C)n2)ccn1` [Example 182], the IC50 in assay [1] was 100 to 500 nM; in the assay with A375 cells, 100 to 500 nM; in the assay on WM3928 cells it was at most 100 nM.

For the compound `CNC(=O)c1cc(-c2cncc(-c3cc(NC(=O)c4cc(C(F)(F)F)ccn4)ccc3C)n2)ccn1` [Example 135], the IC50 in assay [1] was at most 100 nM; in the assay with A375 cells, 500 to 1000 nM.

As to `CC(=O)Nc1cc(-c2nccc(-c3cc(NC(=O)c4ccnc(C(F)(F)F)c4)c(F)cc3C)n2)ccn1` [Example 107], the values for the IC50 (in assay [1]; in the assay with A375 cells) were at most 100 nM and 100 to 500 nM, respectively.

For `CNc1cc(-c2cncc(-c3cc(NC(=O)c4ccnc(C(C)(C)C#N)c4)ccc3C)n2)ccn1` [Example 173], the IC50 in assay [1] lay within 100 to 500 nM; in the assay on A375 cells, 500 to 1000 nM.

For `CCOc1cc(-c2cc(NC(=O)c3ccnc(C(F)(F)F)c3)ccc2C)cc(-c2ccnc(NC(C)=O)c2)n1` [Example 8], the concentration for half-maximal inhibition (IC50) (in assay [1]; in the assay with A375 cells) was at most 100 nM each time.

`CC(=O)Nc1cc(-c2cncc(-c3cc(NC(=O)c4ccc(Cl)c(C(F)(F)F)c4)ccc3C)n2)ccn1` [Example 121]: the IC50 in assay [1] was at most 100 nM; with A375 cells, 100 to 500 nM.

Regarding `COCC(=O)Nc1cc(-c2cncc(-c3cc(NC(=O)c4ccnc(C(C)(C)C#N)c4)ccc3C)n2)ccn1` [Example 142], the IC50 (in assay [1]; in the assay with A375 cells) was at most 100 nM in each case.

As to `CNC(=O)c1cc(-c2cccc(-c3cc(NC(=O)c4ccnc(C(F)(F)F)c4)ccc3C)c2)ncn1` [Example 106], the IC50 in assay [1] was 100 to 500 nM; with A375 cells, 500 to 1000 nM.

For the compound `Cc1ccc(NC(=O)c2ccnc(C(C)(C)C#N)c2)cc1-c1cccc(-c2ccnc3[nH]ccc23)c1` [Example 133], the IC50 is 100 to 500 nM in assay [1] and 1000 to 10000 nM in the assay with A375 cells.

For the compound `Cc1ncc(NC(=O)c2ccnc(C(F)(F)F)c2)cc1-c1cccc(-c2ccnc(N)c2)c1` [Example 94], the IC50 in assay [1] was in the range of 100 to 500 nM; in the assay on A375 cells, 1000 to 10000 nM.

As to `Cc1ccc(NC(=O)c2ccnc(C(C)(C)C#N)c2)cc1-c1cncc(-c2ccnc(N)c2)n1` [Example 141], the IC50 lay in the range of 100 to 500 nM in assay [1] and 1000 to 10000 nM in the assay on A375 cells.

Take `COc1cc(C(=O)Nc2ccc(C)c(-c3cncc(-c4ccnc(NC(C)=O)c4)n3)c2)ccc1F` [Example 120]: the half-inhibitory concentration (IC50) is at most 100 nM in assay [1] and 1000 to 10000 nM in the assay on A375 cells.

In the case of `Cc1ccc(NC(=O)c2ccnc(C(F)(F)F)c2)cc1-c1cncc(-c2ccnc(NC(=O)CN(C)C)c2)n1` [Example 100], the half-inhibitory concentration (IC50) was at most 100 nM in assay [1] and 100 to 500 nM in the assay on A375 cells.

Usually IC50 stands for the point on the concentration scale where inhibition reaches its midpoint.
